This is an account of results in paper PMC11965660, “Isobavachalcone ameliorates Alzheimer disease pathology by autophagy-mediated clearance of amyloid beta and inhibition of NLRP3 inflammasome in primary astrocytes and 5x-FAD mice” (Frontiers in Pharmacology, 2025).

Read-outs that look alike come from different tables or passages of the source.

This experiment deals with NLRP3 inflammasome. In words: NLRP3 inflammasome activation in primary astrocytes, IL-1β and IL-18 release by ELISA. It is filed as cell-based, C57BL/6J mice. The settings on record: for IC50: Mus musculus, Astrocyte, primary astrocytes, microglial conditional media, LPS 1 μg/ml 4 h, IBC 1 h, ATP 5 mM 30 min, ELISA. On the procedure:
Primary astrocytes were first treated with microglia conditional media to induce astrogliosis ([Liddelow et al., 2017]). For this, the microglia (N9) cell line, provided by Dr. Anirban Basu (National Brain Research Centre, Gurgaon, India) was cultured in RPMI-1640. N9 cells (Passage 28-35) were seeded in 24 well plate at density 0.05 × 10^6 per well. The cells were treated with 1 μg/ml LPS, and supernatant was collected after 24 h. Seeded astrocytes were then treated with the LPS stimulated N9 cells supernatant for 24 h. Thereafter, the treatment for NLRP3 inflammasome activation was given, including priming with fresh 1 μg/ml LPS for 4 h, followed by washing and IBC or MCC950 (100 nM) treatment for 1 h in incomplete media (media without fetal bovine serum). ATP at 5 mM concentration was used as secondary signal for 30 min.
The experiment was terminated by collecting the cell supernatant.
After the termination of experiments, the supernatant was collected and analyzed for levels of cytokines. For measuring IL-1β and IL-18, supernatant collected after NLRP3 inflammasome activation as mentioned above, was subjected to ELISA. For detection of IL-1β in mice cortex, mice cortices were isolated and homogenized in RIPA buffer to measure IL-1β in homogenates. The manufacturer’s protocol was followed for measuring the cytokines. The levels of measured cytokines were normalized with the total protein content of the cells. For total protein content of cell pellet lysed with lysis buffer (0.2 N NaCl and 1% Triton-X 100) was measured.
IC50 of Isobavachalcone for IL-1β and IL-18 was calculated by using GraphPad Prism 8 software using non-linear regression analysis model. Log (inhibitor) vs. response curve was plotted.

The IC50 is the midpoint of a concentration-inhibition curve. Take `CC(C)=CCc1c(O)ccc(C(=O)/C=C/c2ccc(O)cc2)c1O` [IBC, isobavachalcone]: the concentration for half-maximal inhibition (IC50) was 2.95 µM (read-out: IC50 for IL-1β release) and 2.75 µM (read-out: IC50 for IL-18 release). Moreover, the “inhibitory effect on release of IL-1β when autophagy is inhibited” value (pre-treatment with 20 nM bafilomycin A1 for 1 h, ELISA and western blotting) is on record as “completely reversed”.
